{
  "source": "patent US10604493B2",
  "about": "“Compositions, methods of use, and methods of treatment” (priority 2012, dated 2020)",
  "key": {"[1]": {"molecular_target": "CTX-M-9 (Escherichia coli, UniProt Q9L5C8)", "assay": "biochemical", "details": "for LipE (defined as log Ki-c log P): from Ki against CTX-M-9 and c log P", "excerpt": "To investigate the effectiveness of the new analogs, we employed CTX-M-9 and a UV-absorbance based biochemical assay to obtain binding affinities. […] The parameter LipE (defined as log Ki-c log P)^24 provides a measure of binding affinity improvement achieved while retaining favorable physiochemical properties.\nThe compounds were synthesized as previously described or purchased from the company Chembridge, and assayed without further purification. The highest concentrations at which the compounds were tested were up to 1-3 mM (depending on their solubility) in IC50 experiment. The reaction was initiated by adding protein to the reaction buffer last."}, "[2]": {"tested_on": "O=C(Cc1cccs1)N[C@@H]1C(=O)N2C(C(=O)O)=C(/C=C/c3ccc([N+](=O)[O-])cc3[N+](=O)[O-])CS[C@H]12", "assay": "purified protein, by the assay type", "details": "other: substrate, 100 mM Tris-HCl pH 7.0, 0.01% Triton X-100"}},
  "data": [
    {"compound": "O=C(Nc1cccc(-c2nnn[nH]2)c1)c1cccc(F)c1", "note": "[Compound 1]", "values": [
      {"measurement": "LipE (defined as log Ki-c log P)", "setting": "[1]", "value": 1.37}
    ]},
    {"compound": "CC(=O)c1cccc(C(=O)Nc2cccc(-c3nnn[nH]3)c2)c1", "note": "[Compound 7, 3-Acetyl-N-[3-(1H-tetrazol-5-yl)-phenyl]-benzamide]", "values": [
      {"measurement": "LipE (defined as log Ki-c log P)", "setting": "[1]", "value": 2.51}
    ]},
    {"compound": "N#Cc1cccc(C(=O)Nc2cccc(-c3nnn[nH]3)c2)c1", "note": "[Compound 14, 3-Cyano-N-[3-(1H-tetrazol-5-yl)-phenyl]-benzamide]", "values": [
      {"measurement": "Ki", "setting": "[1]", "value": 7.2, "unit": "µM"}
    ]},
    {"compound": "O=C(Nc1cccc(-c2nnn[nH]2)c1)c1cc(C(F)(F)F)cc2nc[nH]c12", "note": "[Compound 19, 6-Trifluoromethyl-3H-benzoimidazole-4-carboxylic acid [3-(1H-tetrazol-5-yl)-phenyl]-amide]", "values": [
      {"measurement": "Ki", "setting": "[1]", "value": 0.089, "unit": "µM"},
      {"measurement": "ligand efficiency (L.E.)", "setting": "[1]; from Ki against CTX-M-9", "value": 0.36},
      {"measurement": "LipE (defined as log Ki-c log P)", "setting": "[1]", "value": 3.86}
    ]},
    {"compound": "O=C(Nc1cccc(-c2nnn[nH]2)c1)c1cc(F)cc2nc[nH]c12", "note": "[Compound 23, 6-Fluoro-3H-benzoimidazole-4-carboxylic acid [3-(1H-tetrazol-5-yl)-phenyl]-amide]", "values": [
      {"measurement": "potency (Ki) relative to comparator compound, in words", "setting": "[1]; CTX-M-9", "value": "only equipotent to des-fluoro comparator 16"}
    ]},
    {"compound": "CTX-M-9 (Escherichia coli)", "values": [
      {"measurement": "Km", "setting": "[2]", "value": 24, "unit": "µM"}
    ]}
  ]
}
